Data as given in patent US8765748B2, “Indazolyl, benzimidazolyl, benzotriazolyl substituted indolinone derivatives as kinase inhibitors useful in the treatment of cancer” (University Health Network, priority 2007, dated 2014).
Read-outs that look alike come from different tables or passages of the source.

Legend:
human PLK4 = target: T1, human PLK4 (Homo sapiens, UniProt O00444); experiment: PLK4 Inhibition Assay (indirect ELISA); assay type: biochemical; details: 15 μM ATP, 4 nM GST-PLK4; read-out: PLK4 IC50 Ranges
T1 construct: amino terminal GST fusion of residues 1-391 of human PLK4; made in house; host or cells: E. coli
T1 sequence (O00444 1-391): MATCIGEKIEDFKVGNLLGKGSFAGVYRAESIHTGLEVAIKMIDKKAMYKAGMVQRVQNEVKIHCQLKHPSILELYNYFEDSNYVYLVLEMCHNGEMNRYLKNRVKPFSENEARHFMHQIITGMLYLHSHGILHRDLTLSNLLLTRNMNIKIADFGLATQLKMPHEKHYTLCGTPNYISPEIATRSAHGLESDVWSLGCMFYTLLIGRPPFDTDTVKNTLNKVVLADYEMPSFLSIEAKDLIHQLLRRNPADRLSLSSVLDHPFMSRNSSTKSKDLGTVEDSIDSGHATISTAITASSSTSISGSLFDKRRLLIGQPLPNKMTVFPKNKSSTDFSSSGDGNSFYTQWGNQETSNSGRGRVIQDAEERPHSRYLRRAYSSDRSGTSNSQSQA
Method in brief: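 IC50 values, from 4-point logistic fitting, reflect remaining activity measured by indirect ELISA. Enzyme was GST-PLK4 treated with lambda phosphatase and given a 15-minute pre-incubation with compound before ATP start.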

[1] = test system: MDA-MB-468 basal breast cancer cell line; experiment: Cell growth inhibition, Sulforhodamine B assay (SRB); assay type: cell-based; details: Homo sapiens
Method: (§1) Breast cancer cells (MCF-7, MDA-MB-468, HCC1954), colon cancer cells (SW620) and lung cancer cells (A549), together with human mammary epithelial primary cells (HMEC), were seeded (1000 to 4000 per 80 μl per well depending on the cell growth rate) into 96 well plates, 24 hours before compound overlay. Compounds were prepared as 10 mM stock solutions in 100% DMSO which were diluted with DMEM (Dulbecco's Modified Eagle's Medium) cell growth Medium (Invitrogen, Burlington, ON, Canada) containing 10% FBS (Fetal Bovine Serum) to concentrations ranging from 50 nM to 250 μM. Aliquots (20 μl) from each concentration were overlaid to 80 μl of the pre-seeded cells in the 96 well plates to make final concentrations of 10 nM to 50 μM. The cells were cultured for 5 days before the Sulforhodamine B assay (SRB) was performed to determine the compound's cell growth inhibition activity.
(§2) Sulforhodamine B (purchased from Sigma, Oakville, ON, Canada) is a water-soluble dye that binds to the basic amino acids of the cellular proteins. Thus, colorimetric measurement of the bound dye provides an estimate of the total protein mass that is related to the cell number. the cells are fixed in situ by gently aspirating off the culture media and adding 50 μl ice cold 10% Tri-chloroacetic Acid (TCA) per well and incubate at 4° C. for 30-60 min, The plates are washed with water five times and allowed to air dry for 5 min. Addition of 50 μl 0.4% (w/v) SRB solution in 1% (v/v) acetic acid to each well and incubatation for 30 min at RT completes the staining reaction. Following staining, plates are washed four times with 1% acetic acid to remove unbound dye and then allowed to air dry for 5 min. The stain is solubilized with 100 μl of 10 mM Tris pH10.5 per well. Absorbance is read at 570 nm.
(§3) The percentage (%) of relative growth inhibition was calculated by comparing to DMSO treated only cells (100%). GI50's were determined for compounds with cytotoxic activity. The GI50 was calculated using GraphPad PRISM software (GraphPad Software, Inc., San Diego, Calif., USA).

[2] = test system: MCF-7 luminal breast cancer cell line; experiment: as above; assay type: cell-based; details: Homo sapiens
Method: as §1, §2, §3

Aurora B = target: T2, Aurora B (Homo sapiens, UniProt Q96GD4); experiment: Aurora B Inhibition Assay (Z-Lyte); assay type: biochemical; details: for IC50: 128 μM ATP, 28 nM Aurora B, read-out: Aurora B IC50 Ranges
T2 construct: purchased Invitrogen PV3970
Method: (§4) Aurora B inhibition was determined using the Z-Lyte assay kit from Invitrogen. The assay was performed using the recommended manufacturer's instructions with 128 μM ATP and 28 nM Aurora B (Invitrogen cat #PV3970). The % inhibition values were determined according to the manufacturer's directions and IC50 values were obtained using a non-linear 4 point logistic curve fit (XLfit4, IDBS)

PLK3 = target: T3, PLK3 (Homo sapiens, UniProt Q9H4B4); experiment: PLK3 Inhibition Assay (Z-Lyte); assay type: biochemical; details: 100 μM ATP, 21 nM PLK3
T3 construct: purchased Invitrogen PV3812
Method: as §4, with “PLK3” for “Aurora B”, “Invitrogen (cat #PV3802).” for “Invitrogen.”, “100” for “128”, “21” for “28”, “#PV3812).” for “#PV3970).”, “IDBS).” for “IDBS)”

PLK2 = target: T4, PLK2 (Homo sapiens, UniProt Q9NYY3); experiment: PLK2 Inhibition Assay (Z-Lyte); assay type: biochemical; details: for inhibition at 10 µM: 10 μM compound, read-out: PLK2 relative inhibition percentage at a dose of 10 μM
T4 construct: purchased Invitrogen PV4204
Method: as §4, with “PLK2” for “Aurora B”, “Invitrogen (cat #PV3802).” for “Invitrogen.”, “60” for “128”, “133” for “28”, “#PV4204).” for “#PV3970).”

Aurora A = target: T5, Aurora A (Homo sapiens, UniProt O14965); experiment: Aurora A Inhibition Assay (Z-Lyte); assay type: biochemical; details: 20 μM ATP, 12 nM Aurora A; read-out: Aurora A IC50 Ranges
T5 construct: purchased Invitrogen PV3612
T5 sequence (O14965 1-403): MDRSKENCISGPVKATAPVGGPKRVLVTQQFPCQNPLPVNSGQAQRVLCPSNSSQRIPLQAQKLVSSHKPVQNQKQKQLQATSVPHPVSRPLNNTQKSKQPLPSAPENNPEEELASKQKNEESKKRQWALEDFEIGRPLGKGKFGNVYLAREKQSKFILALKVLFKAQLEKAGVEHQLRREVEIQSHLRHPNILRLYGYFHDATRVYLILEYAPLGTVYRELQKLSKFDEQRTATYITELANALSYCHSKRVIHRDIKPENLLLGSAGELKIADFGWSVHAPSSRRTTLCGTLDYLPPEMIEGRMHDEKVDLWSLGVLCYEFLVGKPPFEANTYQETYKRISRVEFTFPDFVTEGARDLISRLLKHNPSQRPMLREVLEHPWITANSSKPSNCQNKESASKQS
Method: as §4, with “Aurora A” for “Aurora B”, “with 20” for “with 128”, “and 12” for “and 28”, “cat #PV3612).” for “cat #PV3970).”

PLK1 = target: T6, PLK1 (Homo sapiens, UniProt P53350); experiment: PLK1 Inhibition Assay (Z-Lyte); assay type: biochemical; details: for IC50: 25 μM ATP, 8 nM PLK1, read-out: PLK1 IC50 Ranges; for inhibition at 10 µM: 10 μM compound, read-out: PLK1 relative inhibition percentage at a dose of 10 μM
T6 construct: purchased Invitrogen PV3501
Method: PLK1 inhibition was determined using the Z-Lyte assay kit from Invitrogen (cat #PV3802). […] The % inhibition values were determined according to the manufacturer's directions and IC50 values were obtained using a non-linear 4 point logistic curve fit (XLfit4, IDBS)

[3] = test system: T47 D breast cancer cell line; experiment: Cell growth inhibition, SRB assay, extended panel; assay type: cell-based; details: Homo sapiens, T47D; read-out: GI50 on T47D Breast cancer cell line
Method: as §1, §2, §3
In addition to the cell lines tested as described above, selected compounds have been assayed against an extended panel. […] The sulforhodamine B assay (SRB) described above was use to assay test compounds against the extended panel (Table 9).

[4] = test system: HCC1954 basal breast cancer cell line; experiment: Cell growth inhibition, Sulforhodamine B assay (SRB); assay type: cell-based; details: Homo sapiens, HCC1954, 120 h, 5 days culture, read-out: Cell Line GI50 Range, HCC-1954
Method: as §1, §2, §3

A549 lung cancer cells = experiment: as above; assay type: cell-based; details: Homo sapiens, A549, 120 h, 5 days culture, read-out: Cell Line GI50 Range, A-549
Method: as §1, §2, §3

SW620 colon cancer cells = experiment: as above; assay type: cell-based; details: Homo sapiens, SW-620, 120 h, 5 days culture, read-out: Cell Line GI50 Range, SW-620
Method: as §1, §2, §3

[5] = test system: human mammary epithelial primary cells (HMEC); experiment: as above; assay type: cell-based; details: 120 h, 5 days culture, read-out: Cell Line GI50 Range, HMEC
Method: as §1, §2, §3

[6] = MDA-MB-468, 120 h, 5 days culture, SRB, read-out: Cell Line GI50 Range, MDA-MB-468
[7] = MCF7, 120 h, 5 days culture, SRB, read-out: Cell Line GI50 Range, MCF-7
[8] = MDA-MB-468, read-out: GI50 on MDA-MB-468 Breast cancer cell line
[9] = MCF7, read-out: GI50 on MCF-7 Breast cancer cell line

T6 sequence (P53350 whole entry): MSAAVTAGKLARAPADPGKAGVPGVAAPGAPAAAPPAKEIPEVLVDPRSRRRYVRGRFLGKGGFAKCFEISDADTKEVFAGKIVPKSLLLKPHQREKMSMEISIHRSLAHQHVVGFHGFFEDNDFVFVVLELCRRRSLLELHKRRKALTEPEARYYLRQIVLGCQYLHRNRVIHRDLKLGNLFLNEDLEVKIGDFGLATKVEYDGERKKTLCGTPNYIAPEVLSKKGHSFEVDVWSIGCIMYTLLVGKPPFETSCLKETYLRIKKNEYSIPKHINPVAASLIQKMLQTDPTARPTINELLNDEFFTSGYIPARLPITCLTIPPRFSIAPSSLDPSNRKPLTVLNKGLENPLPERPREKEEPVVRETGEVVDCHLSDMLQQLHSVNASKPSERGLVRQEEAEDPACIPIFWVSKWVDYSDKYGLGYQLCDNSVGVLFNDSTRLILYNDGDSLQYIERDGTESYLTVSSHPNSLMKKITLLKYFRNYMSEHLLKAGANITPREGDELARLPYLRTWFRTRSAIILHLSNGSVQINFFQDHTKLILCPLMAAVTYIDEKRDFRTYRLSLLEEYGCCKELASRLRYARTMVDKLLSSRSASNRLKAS
T2 sequence (Q96GD4 whole entry): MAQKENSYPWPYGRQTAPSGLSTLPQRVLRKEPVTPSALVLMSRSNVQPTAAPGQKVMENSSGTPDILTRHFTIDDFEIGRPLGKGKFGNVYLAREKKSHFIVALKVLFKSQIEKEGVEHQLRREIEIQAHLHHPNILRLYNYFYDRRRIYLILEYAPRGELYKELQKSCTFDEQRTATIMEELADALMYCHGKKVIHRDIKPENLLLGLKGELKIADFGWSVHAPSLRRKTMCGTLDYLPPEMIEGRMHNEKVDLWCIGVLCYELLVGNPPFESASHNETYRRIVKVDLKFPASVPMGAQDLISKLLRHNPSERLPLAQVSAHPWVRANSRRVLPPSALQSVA
T4 sequence (Q9NYY3 whole entry): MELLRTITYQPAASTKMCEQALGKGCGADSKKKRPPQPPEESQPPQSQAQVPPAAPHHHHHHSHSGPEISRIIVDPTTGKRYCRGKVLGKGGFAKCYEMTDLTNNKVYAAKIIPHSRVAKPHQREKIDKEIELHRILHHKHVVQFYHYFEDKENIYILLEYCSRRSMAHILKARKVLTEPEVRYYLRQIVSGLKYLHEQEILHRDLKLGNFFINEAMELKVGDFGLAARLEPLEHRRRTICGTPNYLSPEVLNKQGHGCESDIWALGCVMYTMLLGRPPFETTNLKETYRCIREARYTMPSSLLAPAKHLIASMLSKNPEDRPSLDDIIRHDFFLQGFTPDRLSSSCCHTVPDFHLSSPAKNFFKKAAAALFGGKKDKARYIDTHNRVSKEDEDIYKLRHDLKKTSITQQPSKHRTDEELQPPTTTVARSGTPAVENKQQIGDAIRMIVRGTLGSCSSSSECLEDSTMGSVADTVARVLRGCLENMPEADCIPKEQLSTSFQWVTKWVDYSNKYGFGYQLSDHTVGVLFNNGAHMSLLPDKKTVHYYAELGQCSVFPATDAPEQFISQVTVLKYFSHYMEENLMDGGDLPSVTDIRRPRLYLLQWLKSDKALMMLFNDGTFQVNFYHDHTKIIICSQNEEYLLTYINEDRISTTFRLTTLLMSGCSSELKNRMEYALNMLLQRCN
T3 sequence (Q9H4B4 whole entry): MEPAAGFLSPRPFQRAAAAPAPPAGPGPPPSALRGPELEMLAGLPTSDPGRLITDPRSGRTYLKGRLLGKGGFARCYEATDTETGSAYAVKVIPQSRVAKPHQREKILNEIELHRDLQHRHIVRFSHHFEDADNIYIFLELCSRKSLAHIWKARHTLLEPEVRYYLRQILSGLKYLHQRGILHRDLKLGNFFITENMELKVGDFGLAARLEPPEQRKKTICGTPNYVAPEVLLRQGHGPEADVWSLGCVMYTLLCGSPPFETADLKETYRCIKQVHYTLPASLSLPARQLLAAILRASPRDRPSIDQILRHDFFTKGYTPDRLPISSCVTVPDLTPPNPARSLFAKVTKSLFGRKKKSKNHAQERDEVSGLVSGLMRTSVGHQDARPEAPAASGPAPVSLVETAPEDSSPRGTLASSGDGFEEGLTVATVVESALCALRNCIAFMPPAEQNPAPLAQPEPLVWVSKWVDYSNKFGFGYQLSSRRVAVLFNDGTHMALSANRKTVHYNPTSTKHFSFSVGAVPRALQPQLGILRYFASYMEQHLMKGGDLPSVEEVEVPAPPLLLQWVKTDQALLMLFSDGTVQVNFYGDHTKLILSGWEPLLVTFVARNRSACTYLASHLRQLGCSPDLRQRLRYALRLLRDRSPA

| Compound | IC50 (human PLK4) [µM] | GI50 [1, 6] [µM] | GI50 [2, 7] [µM] | IC50 (Aurora B) [µM] | IC50 (PLK3) [µM] | inhibition at 10 µM (PLK2) [%] | IC50 (Aurora A) [µM] | IC50 (PLK1) [µM] | GI50 [1, 8] [µM] | GI50 [2, 9] [µM] | GI50 [3] [µM] | GI50 [4] [µM] | GI50 (A549 lung cancer cells) [µM] | GI50 (SW620 colon cancer cells) [µM] | IC50 (PLK2; 60 μM ATP, 133 nM PLK2, read-out: PLK2 IC50 Ranges) [µM] | GI50 [5] [µM] | inhibition at 10 µM (PLK1) [%] | inhibition at 10 µM (Aurora B; 10 μM compound, read-out: Aurora B relative inhibition percentage at a dose of 10 μM) [%] |
| --- | --- | --- | --- | --- | --- | --- | --- | --- | --- | --- | --- | --- | --- | --- | --- | --- | --- | --- |
| Nc1ccc2c(c1)/C(=C\c1ccc3[nH]nnc3c1)C(=O)N2 [Example A2, (E)-3-((1H-benzo[d][1,2,3]triazol-5-yl)methylene)-5-aminoindolin-2-one] | < 5 | 5 to 20 | > 50 | < 5 | > 0.5 | < 50 | < 5 | 5 to 50 | – | – | – | – | – | – | – | – | – | – |
| CNS(=O)(=O)c1ccc2c(c1)C(=Cc1ccc3cn[nH]c3c1)C(=O)N2 (mixture of isomers) [Example A9, (E and Z)-3-((1H-indazol-6-yl)methylene)-N-methyl-2-oxoindoline-5-sulfonamide] | < 5 | – | – | – | – | – | – | < 5 | > 50 | > 50 | > 50 | – | – | – | – | – | – | – |
| CNS(=O)(=O)c1ccc2c(c1)C(=Cc1ccc3[nH]nnc3c1)C(=O)N2 [Example A7, 3-((1H-benzo[d][1,2,3]triazol-5-yl)methylene)-N-methyl-2-oxoindoline-5-sulfonamide] | < 5 | – | – | – | – | – | – | 5 to 50 | > 50 | > 50 | > 50 | – | – | – | – | – | – | – |
| CC(=O)Nc1cccc2c1NC(=O)/C2=C/c1ccc2cn[nH]c2c1 [Example A49, (E)-N-(3-((1H-indazol-6-yl)methylene)-2-oxoindolin-7-yl)acetamide] | < 5 | – | – | – | > 0.5 | > 50 | – | > 50 | – | – | – | – | – | – | – | – | – | – |
| CC(C)c1ccc2c(c1)/C(=C\c1ccc3c(/C=C/c4ccncc4)n[nH]c3c1)C(=O)N2 [Example A127, (E)-5-isopropyl-3-((3-((E)-2-(pyridin-4-yl)vinyl)-1H-indazol-6-yl)methylene)indolin-2-one 2,2,2-trifluoroacetate] | < 5 | < 5 | < 5 | < 5 | > 0.5 | – | < 5 | – | – | – | – | < 5 | 5 to 20 | < 5 | – | – | – | – |
| O=C1Nc2ccccc2/C1=C\c1ccc2[nH]ncc2c1 [Example A6, (E)-3-((1H-indazol-5-yl)methylene)indolin-2-one] | < 5 | 5 to 20 | 5 to 20 | < 5 | > 0.5 | – | < 5 | 5 to 50 | – | – | – | – | – | – | < 5 | – | – | – |
| O=C1Nc2ccccc2/C1=C\c1ccc2c(-c3cccs3)n[nH]c2c1 [Example A91, (E)-3-((3-(thiophen-2-yl)-1H-indazol-6-yl)methylene)indolin-2-one] | < 5 | < 5 | < 5 | < 5 | – | < 50 | 5 to 50 | – | – | – | – | < 5 | – | < 5 | – | 5 to 20 | < 50 | – |
| CCOC(=O)/C=C/c1n[nH]c2cc(/C=C3/C(=O)Nc4ccc(OC)cc43)ccc12 [Example A111, (E)-ethyl 3-(6-((E)-(5-methoxy-2-oxoindolin-3-ylidene)methyl)-1H-indazol-3-yl)acrylate] | < 5 | – | – | – | – | < 50 | < 5 | – | > 50 | > 50 | > 50 | – | – | – | – | – | < 50 | – |
| O=C(O)/C=C/c1n[nH]c2cc(/C=C3/C(=O)Nc4ccccc43)ccc12 [Example A70, (E)-3-(6-((E)-(2-oxoindolin-3-ylidene)methyl)-1H-indazol-3-yl)acrylic acid] | < 5 | – | – | – | – | – | – | – | > 50 | > 50 | > 50 | – | – | – | – | – | – | – |
| CC(C)NC(=O)Nc1ccc2c(c1)/C(=C\c1ccc3cn[nH]c3c1)C(=O)N2 [Example A26, (E)-1-(3-((1H-indazol-6-yl)methylene)-2-oxoindolin-5-yl)-3-isopropylurea] | < 5 | – | – | – | > 0.5 | < 50 | < 5 | 5 to 50 | – | – | – | – | – | – | – | – | – | < 50 |
